Measurements reported in patent publication US5409946A, “Isoxazole, isothiazole and pyrazole compounds that enhance cognitive function” (Abbott Laboratories, priority 1993, dated 1995).
“Also recorded” adds a separate entry of the source. Like-named read-outs stand apart in the source and are kept apart here.

Experiments:
[1] = system: time spent in the open arms (anxiolytic activity); assay: Mouse elevated plus-maze; assay type: in vivo, CD1 mice
Excerpt: The mouse elevated plus-maze is a commonly-used conflict test that probes anxiolytic activity of test compounds (Lister, Psychopharmacology, 1987, 92 180). It is based on the fact that exposure of mice to an elevated open arm leads to an avoidance response considerably stronger than that evoked by exposure to an enclosed arm.
The apparatus required to perform this test is made of plywood and consists of two open arms (17×8 cm) and two enclosed arms (17×8×15 cm) extending from a central platform (8×8 cm). It is mounted on a plywood base rising 39 cm above the floor. Mice are released on the central platform and the time spent in the open and enclosed arms is recorded during a 5 minute test period.
The compound of Example 2 (0.0108-1.08 μmol/kg, i.p.) was administered to CD1 mice (n=12 per group) 15 minutes before the test.

[2] = system: neuronal nicotinic cholinergic channels in PC12 cells; assay: Cholinergic channel activator action in PC12 cells, whole-cell patch-clamp; assay type: cell-based, rat; details: PC12 cells; mean ± S.E.M.
Protocol: Electrophysiologic recordings were obtained from differentiated (neurite-bearing) cells after 4-7 days exposure to NGF. […] After 20 minutes, differentiating medium was added (DMEM containing 100 ng/ml nerve growth factor, 5% heat-inactivated fetal calf serum and 2.5% heat-inactivated horse serum) and the cells were refed with this medium every 3 days.
The intracellular (recording pipette) solution consisted of 140 mM KCl, 1.0 mM CaCl2, 2.0 mM MgCl2, 11 mM K-EGTA, and 10 mM K-HEPES buffer (7.3 pH, 315 mOsm). Osmolarities were adjusted using dextrose such that the extracellular solution was 10 mOsm hypertonic compared to the intracellular solution. Voltage-gated inward (sodium) and outward (potassium) currents were monitored throughout the experiment to determine establishment and maintenance of the whole-cell recording configuration.

1-4 Hz slow wave EEG = 1-4 Hz slow wave EEG amplitude; assay type: in vivo, male Wistar rats
[3] = system: retention of the avoidance response; assay: Inhibitory avoidance test; assay type: in vivo
Excerpt: The inhibitory (or sometimes called passive) avoidance (IA) test is a well-accepted animal model for learning/memory and is widely used to assess the activity of novel cognition enhancers in enhancing cognitive function (Wanibuchi et al., Eur. J. Pharmacol., 1990, 187:479). According to this test, animals are placed in the illuminated (12×14×11 cm) portion of a two-chambered box, from which they enter through a guillotine door to the larger (24×13.5×12 cm) dark compartment of the box. Entry to the dark compartment is accompanied by a mild (0.35 mA), brief (2 seconds) footshock. Initial latencies to cross are recorded, with an imposed 60 second ceiling. Following a 24 hour retention interval, animals are returned to the illuminated chamber, and latency to return to the dark compartment is again recorded, with a ceiling of 180 seconds. No footshock is administered on the test day.
Twelve animals were used in each group.

spike wave discharges = assay: Attenuation of petit mal absence-like spike wave discharges (EEG); assay type: in vivo, male Wistar rats; details: for Total spike wave duration: p < 0.05
Protocol: Animals: Male albino rats of the Wistar strain (CAMM Research) were maintained on a 12:12 hour light-dark cycle and individually housed throughout these experiments. They were fed standard rodent diet with food and water provided ad libitum.
EEG Recordings: To record spike wave discharges, rats were surgically implanted with permanently affixed EEG electrodes over the frontal codex using previously described techniques (Radek, Brain Res., 1993, in press). After at least a ten day recovery from this surgery, EEG recordings were made inside darkened sound attenuating chambers. Rats were allowed to move freely within the chambers and computerized activity monitors recorded animal motion during these studies. Only those rats that express spike wave discharges, as identified from preliminary recordings, were used to test the effects of nicotinic agents.
Drug studies: EEG recordings were obtained from each rat for a period of 20 minutes of total waking immobility immediately after administration of drug, or a drug-free control solution. Immobility was characterized as the absence of infrared beam interruptions from the activity monitor system. Spike wave activity was identified as regular 6-10 Hz complexes with amplitudes of 0.4 to 1.0 mV. The total spindling duration for 20 minutes of waking immobility was calculated by determining the length (in seconds) of each spike wave burst, and adding each of these times together to obtain a total spindle time for the recording session. Each rat was administered the control solution and one or two doses of the test compounds and each dosing was given at least 48 hours after the previous treatment.
The compound of Example 2 was dissolved in saline to the desired concentration.

ethanol-induced narcosis = assay type: in vivo, male CD1 mice; details: post-treatment
Excerpt: It is known that administration of ethanol to mice induces a state of narcosis in the animals. […] It is also known that certain compounds can modify the narcotic effect of ethanol in this model.
Animals: Male CD1 mice (Charles-River Co., Portage, Mich.) weighing 25-30 g were used in the experiments. Upon arrival they were caged in groups of 14 and allowed to acclimatize to laboratory conditions for one week before the beginning of the studies. They were fed standard rodent diet with food and water ad libitum.
Duration of sleep time: Mice received intraperitoneal (i.p.) injections of ethanol and either saline or one of the drug treatments. Upon loss of the righting reflex, a timer was started to record the duration of the sleep time until the reflex was recovered. Two types of experiments were conducted to study the effect of drugs before (pre-treatment) or after (post-treatment) the injection of the narcotic dose of ethanol. In the pre-treatment experiments the drugs were injected i.p., 15 minutes before ethanol. In the post-treatment experiments the drugs were administered i.p., 1 minute after the animals lost the righting reflex, which was approximately 5 minutes after administration of ethanol.
Drugs: Ethanol was prepared as a 20% v/v (16% w/v) solution in saline. Based on previous studies, a dose of 87 mmol/kg (4 g/kg) was selected as the narcotic dose. RO 15-4513, the benzodiazepine receptor inverse agonist discussed in the Background section, was purchased from RBI (Natick, Mass.). It was dissolved in saline solution with Tween-80 and ultrasonically homogenized for 3 minutes. […] The compounds of Examples 2 and 4, both novel neuronal nicotinic receptor ligands according to the present invention, were also dissolved in saline to the desired concentrations.

Q: `Cc1cc([C@@H]2CCCN2C)on1.O=C(O)C(=O)O` [Example 2, 3-Methyl-5-(1-methyl-2(S)-pyrrolidinyl)-isoxazole oxalate salt] was tested. Which “Elevated Plus-Maze (EPM) doses with significant effect” value ([1]; i.p., p<0.05) did it give?
A: The value was 0.036 to 1.08 µmol/kg.

Q: And the “Elevated Plus-Maze (EPM) result” value ([1]; i.p., time in open arms, p<0.05, oxalate salt)?
A: Its value is “clear anxiolytic response; also recorded: significant”.

Q: And the “anxiolytic potency relative to (-)-nicotine” value ([1]; more potent than (-)-nicotine)?
A: The value was “at least 10 fold”.

Q: What about the EC50 [2] of the same compound?
A: Its EC50 is 209 ± 76 µM.

Q: And the “1-4 Hz amplitude” value (1-4 Hz slow wave EEG; 1.9 μmol/kg i.p.)?
A: The value was 27.3 ± 5.0 μVolts.

Q: And the “effect on low frequency (1-4 Hz) EEG slow-wave patterns” value (1-4 Hz slow wave EEG; i.p.)?
A: The value was “does not affect those patterns”.

Q: What about the “equally efficacious at fraction of the dose of (-)-nicotine in IA” value ([3]; dose relative to (-)-nicotine) of the same compound?
A: The value was 1/17.

Q: And the “Inhibitory Avoidance (IA) result” value ([3]; i.p. 15 min before training, retention at 24 h, p<0.05, oxalate salt)?
A: The value was “significantly facilitated the retention of the avoidance response; also recorded: significant”.

Q: And the “Total spike wave duration” value (spike wave discharges; Table 8, 1.9 μmol/kg i.p.)?
A: The value was 26.7 ± 9.2 s.

Q: What about the “Total spike wave duration” value (spike wave discharges; Table 8, 6.2 μmol/kg i.p.) of the same compound?
A: Its value is 33.1 ± 10.2 s.

Q: What about the “Total spike wave duration” value (spike wave discharges; Table 9, 10 μmol/kg p.o.) of the same compound?
A: Its value is 25.6 ± 7.5 s.

Q: What about the “Total spike wave duration” value (spike wave discharges; Table 11, 6.2 μmol/kg i.p.) of the same compound?
A: The value was 8.2 ± 3.8 s.

Q: What about the “effect on incidence of spike wave discharges” value (spike wave discharges; i.p., 20 min waking immobility, p<0.05 where significant) of the same compound?
A: The value was “significantly lowered the incidence of spike wave discharges”.

Q: And the “effect on incidence of spike wave discharges” value (spike wave discharges; oral, 10.0 μmol/kg, p<0.05)?
A: The value was “significantly lowered the incidence of spike wave discharges”.

Q: What about the Sleeping time (ethanol-induced narcosis; 0.062 μmol/kg i.p.) of the same compound?
A: The Sleeping time was 91 ± 20 % of controls.

Q: What about the Sleeping time (ethanol-induced narcosis; 0.19 μmol/kg i.p.) of the same compound?
A: The Sleeping time was 68 ± 15 % of controls.

Q: And the Sleeping time (ethanol-induced narcosis; 0.62 μmol/kg i.p.)?
A: Its Sleeping time is 51 ± 8 % of controls.

Q: What about the “effect of post-treatment on ethanol-induced narcosis” value (ethanol-induced narcosis; i.p., p<0.05, one-tailed t test) of the same compound?
A: Its value is “significantly reduced”.
